In assay [1] the target is PI3Kγ (p110γ) Recombinant Human Protein (Homo sapiens (Human), UniProt P48736). Briefly: PI3K-γ Scintillation Proximity Assay. It is filed as biochemical. Conditions: 20 μM PIP2, 2 μM ATP, 13 nM PI3Kγ, 120 min, room temperature. The gist of the method: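 Recombinant human p110γ (13 nM) phosphorylated 20 μM PIP2 with 2 μM ATP plus [γ-33P]ATP in 20 mM MOPS pH 6.7, 10 mM MgCl2, 5 mM DTT, 0.03% CHAPS, 2% DMSO, 120 min at room temperature. Radiolabelled product was captured on WGA SPA beads and counted. IC50 came from curves of percent solvent-control activity.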
PI3Kγ (p110γ) Recombinant Human Protein, sequence (P48736 whole entry): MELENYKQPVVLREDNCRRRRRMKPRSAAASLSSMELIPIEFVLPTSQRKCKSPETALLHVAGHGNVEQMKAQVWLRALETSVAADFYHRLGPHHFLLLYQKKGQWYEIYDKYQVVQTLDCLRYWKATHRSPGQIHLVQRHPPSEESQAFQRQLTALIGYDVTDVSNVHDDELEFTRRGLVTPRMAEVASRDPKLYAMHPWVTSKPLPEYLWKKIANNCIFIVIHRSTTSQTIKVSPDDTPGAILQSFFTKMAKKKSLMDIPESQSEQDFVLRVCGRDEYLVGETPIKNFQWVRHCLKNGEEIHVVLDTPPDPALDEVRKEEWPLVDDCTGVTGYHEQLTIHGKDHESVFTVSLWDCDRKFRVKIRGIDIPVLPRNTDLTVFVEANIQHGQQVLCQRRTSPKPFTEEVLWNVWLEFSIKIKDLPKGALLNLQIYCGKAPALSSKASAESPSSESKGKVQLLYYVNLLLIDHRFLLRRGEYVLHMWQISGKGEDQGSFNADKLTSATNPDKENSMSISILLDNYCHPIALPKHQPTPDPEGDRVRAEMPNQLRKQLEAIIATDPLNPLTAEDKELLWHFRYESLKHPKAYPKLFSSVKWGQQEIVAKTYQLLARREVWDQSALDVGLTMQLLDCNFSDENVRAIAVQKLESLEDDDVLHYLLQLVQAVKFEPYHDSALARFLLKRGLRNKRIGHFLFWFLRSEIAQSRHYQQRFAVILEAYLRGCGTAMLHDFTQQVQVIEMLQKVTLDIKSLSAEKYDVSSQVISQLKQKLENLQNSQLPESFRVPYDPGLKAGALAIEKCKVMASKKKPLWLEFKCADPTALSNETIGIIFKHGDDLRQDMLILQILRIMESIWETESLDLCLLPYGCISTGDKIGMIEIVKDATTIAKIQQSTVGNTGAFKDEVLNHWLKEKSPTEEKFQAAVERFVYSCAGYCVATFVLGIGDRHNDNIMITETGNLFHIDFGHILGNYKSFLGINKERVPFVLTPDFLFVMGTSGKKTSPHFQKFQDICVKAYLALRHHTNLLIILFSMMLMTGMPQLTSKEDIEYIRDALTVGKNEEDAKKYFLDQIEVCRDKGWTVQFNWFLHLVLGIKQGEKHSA
On the technique in general: SPA uses beads or plates that emit light when radiolabelled molecules are held near them.

The target of assay [2] is PI3Kδ (p110δ/p85α) Recombinant Human Protein (Homo sapiens (Human), UniProt O00329). Briefly: PI3Kδ Scintillation Proximity Assay. It counts as biochemical. The note with it: 20 μM PIP2, 2 μM ATP, 3.4 nM PI3Kδ, 120 min, room temperature. The gist of the method: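 Radiometric read-out: 33P-labelled PIP3 product captured on WGA SPA beads and counted, with IC50 fitted from percent activity relative to DMSO control. Enzyme (3.4 nM) was incubated 120 min at room temperature with 20 μM PIP2 and 2 μM ATP at pH 6.7, 2% DMSO.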
PI3Kδ (p110δ/p85α) Recombinant Human Protein, sequence (O00329 whole entry): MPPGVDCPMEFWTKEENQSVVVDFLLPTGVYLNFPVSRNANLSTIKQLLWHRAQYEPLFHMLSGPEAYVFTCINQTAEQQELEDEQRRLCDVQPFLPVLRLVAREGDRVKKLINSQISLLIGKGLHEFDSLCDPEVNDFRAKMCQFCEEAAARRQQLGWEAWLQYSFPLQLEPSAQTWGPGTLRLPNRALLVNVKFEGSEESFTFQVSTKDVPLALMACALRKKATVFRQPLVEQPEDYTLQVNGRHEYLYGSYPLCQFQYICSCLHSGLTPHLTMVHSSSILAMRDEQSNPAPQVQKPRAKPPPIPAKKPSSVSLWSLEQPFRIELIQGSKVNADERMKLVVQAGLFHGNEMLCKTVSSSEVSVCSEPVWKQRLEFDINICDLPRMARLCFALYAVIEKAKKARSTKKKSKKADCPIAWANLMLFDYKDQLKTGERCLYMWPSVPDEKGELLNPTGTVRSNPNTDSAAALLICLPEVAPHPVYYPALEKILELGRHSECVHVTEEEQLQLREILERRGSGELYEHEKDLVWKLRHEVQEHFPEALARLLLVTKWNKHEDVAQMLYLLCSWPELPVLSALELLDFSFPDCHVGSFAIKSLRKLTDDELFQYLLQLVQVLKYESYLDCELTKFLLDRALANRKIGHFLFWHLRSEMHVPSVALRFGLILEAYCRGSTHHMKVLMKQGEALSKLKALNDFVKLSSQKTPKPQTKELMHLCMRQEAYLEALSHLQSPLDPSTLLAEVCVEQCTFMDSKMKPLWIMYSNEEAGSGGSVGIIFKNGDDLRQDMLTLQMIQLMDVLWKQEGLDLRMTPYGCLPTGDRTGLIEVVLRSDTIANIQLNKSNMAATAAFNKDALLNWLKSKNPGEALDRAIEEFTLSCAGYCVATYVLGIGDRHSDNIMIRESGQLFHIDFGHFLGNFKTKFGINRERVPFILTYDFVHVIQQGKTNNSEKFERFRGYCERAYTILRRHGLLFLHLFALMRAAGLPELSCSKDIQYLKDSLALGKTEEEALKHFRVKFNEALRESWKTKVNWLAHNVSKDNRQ
PI3Kδ (p110δ/p85α) Recombinant Human Protein, sequence (P27986 whole entry partner): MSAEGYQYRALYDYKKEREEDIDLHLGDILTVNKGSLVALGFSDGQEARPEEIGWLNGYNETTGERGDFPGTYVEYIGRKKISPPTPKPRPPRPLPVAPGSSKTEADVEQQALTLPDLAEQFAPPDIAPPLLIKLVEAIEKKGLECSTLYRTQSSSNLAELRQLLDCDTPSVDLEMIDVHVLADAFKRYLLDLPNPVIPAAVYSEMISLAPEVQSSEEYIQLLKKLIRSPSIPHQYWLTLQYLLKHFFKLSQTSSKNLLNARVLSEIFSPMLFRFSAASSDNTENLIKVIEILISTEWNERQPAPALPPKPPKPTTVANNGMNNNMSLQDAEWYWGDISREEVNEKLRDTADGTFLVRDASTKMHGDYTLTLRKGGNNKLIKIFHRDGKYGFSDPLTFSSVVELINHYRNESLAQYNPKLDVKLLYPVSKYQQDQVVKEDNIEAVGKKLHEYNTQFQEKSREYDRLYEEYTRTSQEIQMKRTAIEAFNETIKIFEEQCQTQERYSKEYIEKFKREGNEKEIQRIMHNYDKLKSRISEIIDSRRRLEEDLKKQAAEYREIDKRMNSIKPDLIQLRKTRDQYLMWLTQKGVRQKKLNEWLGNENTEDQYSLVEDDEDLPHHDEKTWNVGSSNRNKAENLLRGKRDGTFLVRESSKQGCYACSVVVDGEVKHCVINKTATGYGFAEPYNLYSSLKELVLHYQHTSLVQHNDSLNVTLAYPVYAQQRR

Assay [3] deals with Phosphorylated Ribosomal Protein S6 (RPS6) in THP-1 cells. Briefly: THP-1 RPS6 ELISA Assay. The note with it: Homo sapiens; serum starved THP-1 cells, 2 hours with compound, 10 nM MCP-1 for 15 minutes, Phospho-RPS6 ELISA; read-out: PI3Kγ_THP1_RPS6_ELISA IC50. It is filed as cell-based. The gist of the method:
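Phospho-RPS6 in lysates measured by ELISA at 450 nm, corrected at 540 nm, after MCP-1 challenge (10 nM, 15 min) of THP-1 cells that were starved overnight and exposed to test compound for 2 h at 37° C, 2×10^5 cells/well. Curve fit of percent inhibition gives IC50.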
On the technique in general: In an ELISA, binding on a coated surface is turned into a signal by an enzyme label.

By IC50 is commonly meant the concentration that inhibits the measured activity by half.

Structures can show the parent of a compound that is named as a salt. Bounds are passed on as bounds.

Turning to `[2H]C([2H])([2H])c1ccc(S(=O)(=O)NC23CCC(C#N)(C2)C3)cc1-c1cnc(N)c(-c2ncco2)n1` [Example 71, 3-(5-Amino-6-(oxazol-2-yl)pyrazin-2-yl)-N-(4-cyanobicyclo[2.1.1]hexan-1-yl)-4-(methyl-d3)benzenesulfonamide trifluoroacetate salt], the IC50 in assay [1] is at most 100 nM; in assay [2], at most 500 nM; in assay [3], at most 500 nM.

Take `Cc1cc(-c2nc(-c3cc(S(=O)(=O)NC45CCC(CO)(CC4)OC5)ccc3C)cnc2N)ccn1` [Example 18, 3-(5-Amino-6-(2-methylpyridin-4-yl)pyrazin-2-yl)-N-(1-(hydroxymethyl)-2-oxabicyclo[2.2.2]octan-4-yl)-4-methylbenzenesulfonamide Trifluoroacetate Salt]: the results for the IC50 in assay [1], in assay [2] and in assay [3] were at most 100 nM, at most 500 nM and at most 500 nM, respectively.

On to `[2H]C([2H])([2H])c1ccc(S(=O)(=O)NC23CCC(C#N)(C2)C3)cc1-c1cnc(N)c(-c2ccn(C)n2)n1` [Example 63, 3-(5-Amino-6-(1-methyl-1H-pyrazol-3-yl)pyrazin-2-yl)-N-(4-cyanobicyclo[2.1.1]hexan-1-yl)-4-(methyl-d3)benzenesulfonamide Trifluoroacetate Salt], for which the IC50 in assay [1], in assay [2] and in assay [3] was at most 100 nM each time.

`Cc1ccc(S(=O)(=O)NC23CCC(O)(CC2)C3)cc1-c1cnc(N)c(-c2cccnc2)n1` [Example 16, 3-(5-Amino-6-(pyridin-3-yl)pyrazin-2-yl)-N-(4-hydroxybicyclo[2.2.1]heptan-1-yl)-4-methylbenzenesulfonamide Trifluoroacetate Salt]: the IC50 in assay [1] is at most 100 nM; in assay [2] it was at most 100 nM; in assay [3], at most 500 nM.

Consider `Cc1ccc(S(=O)(=O)NC23CC(C#N)(C2)C3)cc1-c1cnc(N)c(-n2nccn2)n1` [Example 41, 3-(5-Amino-6-(2H-1,2,3-triazol-2-yl)pyrazin-2-yl)-N-(3-cyanobicyclo[1.1.1]pentan-1-yl)-4-methylbenzenesulfonamide Trifluoroacetate Salt], for which the concentration for half-maximal inhibition (IC50) in assay [1], in assay [2] and in assay [3] was at most 100 nM in each case.

`Cc1ccc(S(=O)(=O)NC23CNC(C2)C3)cc1-c1cnc(N)c(-n2ccnn2)n1` [Example 59, 3-(5-amino-6-(1H-1,2,3-triazol-1-yl)pyrazin-2-yl)-N-(2-azabicyclo[2.1.1]hexan-4-yl)-4-methylbenzenesulfonamide trifluoroacetate salt]: the results for the IC50 in assay [1], in assay [2] and in assay [3] were at most 100 nM, at most 500 nM and at most 1000 nM, respectively.

For the compound `Cc1ccc(S(=O)(=O)NC23COC(CO)(C2)C3)cc1-c1cnc(N)c(-n2cncn2)n1` [Example 27, 3-(5-Amino-6-(1H-1,2,4-triazol-1-yl)pyrazin-2-yl)-N-(1-(hydroxymethyl)-2-oxabicyclo[2.1.1]hexan-4-yl)-4-methylbenzenesulfonamide trifluoroacetate salt], the IC50 in assay [1] is at most 100 nM; in assay [2], at most 500 nM; in assay [3], at most 500 nM.

Take `Cc1ncc(-c2nc(-c3cc(S(=O)(=O)NC45CCC(C#N)(C4)C5)ccc3C)cnc2N)s1` [Example 2, 3-(5-Amino-6-(2-methylthiazol-5-yl)pyrazin-2-yl)-N-(4-cyanobicyclo[2.1.1]hexan-1-yl)-4-methylbenzenesulfonamide trifluoroacetate salt]: the IC50 in assay [1], in assay [2] and in assay [3] was at most 100 nM each time.

Consider `Cc1ncc(-c2nc(-c3cc(S(=O)(=O)NC45CC(C#N)(C4)C5)ccc3C)cnc2N)s1` [Example 1, 3-(5-Amino-6-(2-methylthiazol-5-yl)pyrazin-2-yl)-N-(3-cyanobicyclo[1.1.1]pentan-1-yl)-4-methylbenzenesulfonamide Trifluoroacetate Salt], for which the IC50 in assay [1], in assay [2] and in assay [3] was at most 100 nM each time.

For `Cc1ncc(-c2cc(-c3cc(S(=O)(=O)NC45CCC(C#N)(C4)C5)ccc3C)cnc2N)s1` [Example 85, 3-(6-amino-5-(2-methylthiazol-5-yl)pyridin-3-yl)-N-(4-cyanobicyclo[2.1.1]hexan-1-yl)-4-methylbenzenesulfonamide], the IC50 in assay [1], in assay [2] and in assay [3] was at most 100 nM each time.

Regarding `Cc1ccc(S(=O)(=O)NC23CCC(CO)(C2)C3)cc1-c1cnc(N)c(-n2cncn2)n1` [Example 25, 3-(5-Amino-6-(1H-1,2,4-triazol-1-yl)pyrazin-2-yl)-N-(4-(hydroxymethyl)bicyclo[2.1.1]hexan-1-yl)-4-methylbenzenesulfonamide trifluoroacetate salt], the IC50 in assay [1], in assay [2] and in assay [3] was at most 100 nM in each case.

Consider `Cc1ccc(S(=O)(=O)NC23CC(C(=O)N4CCC4)(C2)C3)cc1-c1cnc(N)c(-n2cncn2)n1` [Example 34, 3-(5-Amino-6-(1H-1,2,4-triazol-1-yl)pyrazin-2-yl)-N-(3-(azetidine-1-carbonyl)bicyclo[1.1.1]pentan-1-yl)-4-methylbenzenesulfonamide trifluoroacetate salt], for which the IC50 in assay [1] was at most 100 nM; in assay [2], at most 500 nM; in assay [3], at least 1000 nM.

In the case of `[2H]C([2H])([2H])c1ccc(S(=O)(=O)NC23CC(CO)(C2)C3)cc1-c1cnc(N)c(-c2cnco2)n1` [Example 75, 3-(5-Amino-6-(oxazol-5-yl)pyrazin-2-yl)-N-(3-(hydroxymethyl)bicyclo[1.1.1]pentan-1-yl)-4-(methyl-d3)benzenesulfonamide trifluoroacetate salt], the values for the IC50 in assay [1], in assay [2] and in assay [3] were at most 100 nM, at most 500 nM and at most 100 nM, respectively.

Consider `Cc1ccc(S(=O)(=O)NC23CCC(C#N)(C2)C3)cc1-c1cnc(N)c(-c2cn(C)nc2C)c1` [Example 82, 3-(6-Amino-5-(1,3-dimethyl-1H-pyrazol-4-yl)pyridin-3-yl)-N-(4-cyanobicyclo[2.1.1]hexan-1-yl)-4-methylbenzenesulfonamide], for which the results for the IC50 in assay [1], in assay [2] and in assay [3] were at most 100 nM, at most 500 nM and at most 1000 nM, respectively.

With `Cc1ncc(-c2nc(-c3cc(S(=O)(=O)NC45COC(C(C)O)(C4)C5)ccc3C)cnc2N)s1` (stereo not drawn) [Example 8, 3-(5-Amino-6-(2-methylthiazol-5-yl)pyrazin-2-yl)-N-(1-(1-hydroxyethyl)-2-oxabicyclo[2.1.1]hexan-4-yl)-4-methylbenzenesulfonamide trifluoroacetate salt], the IC50 in assay [1], in assay [2] and in assay [3] was at most 100 nM in each case.

Turning to `O=C(O)C(F)(F)F.[2H]C([2H])([2H])c1ccc(S(=O)(=O)NC23CNC(C2)C3)cc1-c1cnc(N)c(-c2cnco2)n1` [Example 56, 3-(5-Amino-6-(oxazol-5-yl)pyrazin-2-yl)-N-(2-azabicyclo[2.1.1]hexan-4-yl)-4-(methyl-d3)benzenesulfonamide trifluoroacetate salt], the IC50 in assay [1] is at most 100 nM; in assay [2] it was at most 500 nM; in assay [3], at most 1000 nM.

Turning to `[2H]C([2H])([2H])c1ccc(S(=O)(=O)NC23CCC(C#N)(C2)C3)cc1-c1cnc(N)c(-c2cnc(C)s2)n1` [Example 65, 3-(5-Amino-6-(2-methylthiazol-5-yl)pyrazin-2-yl)-N-(4-cyanobicyclo[2.1.1]hexan-1-yl)-4-(methyl-d3)benzenesulfonamide trifluoroacetate salt], the IC50 in assay [1], in assay [2] and in assay [3] was at most 100 nM throughout.

Turning to `[2H]C([2H])([2H])c1ccc(S(=O)(=O)NC23CCC(O)(C2)C3)cc1-c1cnc(N)c(-c2ccnc(SC)n2)n1` [Example 77, 3-(5-Amino-6-(2-(methylthio)pyrimidin-4-yl)pyrazin-2-yl)-N-(4-hydroxybicyclo[2.1.1]hexan-1-yl)-4-(methyl-d3)benzenesulfonamide], the IC50 in assay [1], in assay [2] and in assay [3] was at most 100 nM in each case.

In the case of `[2H]C([2H])([2H])c1ccc(S(=O)(=O)NC23CC(CO)(C2)C3)cc1-c1cnc(N)c(-c2ccncn2)n1` [Example 81, 3-(5-Amino-6-(pyrimidin-4-yl)pyrazin-2-yl)-N-(3-(hydroxymethyl)bicyclo[1.1.1]pentan-1-yl)-4-(methyl-d3)benzenesulfonamide trifluoroacetate salt], the 50% inhibitory concentration (IC50) in assay [1] is at most 100 nM; in assay [2] it was at most 100 nM; in assay [3] it was at most 500 nM.

`[2H]C([2H])([2H])c1ccc(S(=O)(=O)NC23CCC(O)(C2)C3)cc1-c1cnc(N)c(-c2cnco2)n1` [Example 74, 3-(5-Amino-6-(oxazol-5-yl)pyrazin-2-yl)-N-(4-hydroxybicyclo[2.1.1]hexan-1-yl)-4-(methyl-d3)benzenesulfonamide trifluoroacetate salt]: the IC50 is at most 100 nM in assay [1], at most 500 nM in assay [2] and at most 100 nM in assay [3].
